Assay results: ChEMBL document CHEMBL1201862, “PubChem BioAssay data set” (2004)
The source made the active and inactive calls.

Tests used:
[1] = AlphaScreen signal interference compounds, dose response, artefact control for ARNT-TACC3 interaction inhibitor project, biochemical, luminescence, cherry-pick (AID 651705); assay type: functional;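 note: AlphaScreen bead proximity signal that flags compounds interfering with the detection technology; potency reflects signal decrease which marks the compound as an assay artifact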
Interleukin-8 [2] = target: T1, Interleukin-8 (Homo sapiens, UniProt P10145); experiment: Dose Response confirmation of uHTS small molecule hits for cystic fibrosis induced NFkb Inhibitors in a TNFa-induced IL8 counterscreen.; assay type: functional; conditions: read-out: IC50_Mean
T1 sequence (P10145 whole entry): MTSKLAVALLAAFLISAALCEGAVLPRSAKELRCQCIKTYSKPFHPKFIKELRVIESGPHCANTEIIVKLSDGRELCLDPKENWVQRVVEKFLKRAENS

Interleukin-8 [3] = target: T1, Interleukin-8; experiment: Dose Response confirmation of uHTS small molecule hits for cystic fibrosis induced NFkb Inhibitors in a PAF-induced IL8 counterscreen.; assay type: functional; conditions: read-out: IC50_Mean
[4] = NIH-3T3 fibroblast cytotoxicity, dose response, cytotoxicity control, cell-based, fluorescence, Alamar Blue, secondary assay (AID 2327); assay type: functional;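 note: NIH-3T3 mouse fibroblasts cultured with fluconazole at 8 µg/mL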
[5] = C. albicans growth with fluconazole, confirmation, fluorescence, retest (AID 2467); assay type: functional, cell-based
[6] = THP-1 cell cytotoxicity, dose response, cytotoxicity control for non-replicating M. tuberculosis project (AID 489025); assay type: functional
[7] = target: T2, Ubiquitin-conjugating enzyme E2 N (Homo sapiens, UniProt P61088); assay type: functional;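 note: Dose-response confirmation in a TR-FRET assay detecting UBC13-driven polyubiquitin chain formation, inhibition measured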
T2 sequence (P61088 whole entry): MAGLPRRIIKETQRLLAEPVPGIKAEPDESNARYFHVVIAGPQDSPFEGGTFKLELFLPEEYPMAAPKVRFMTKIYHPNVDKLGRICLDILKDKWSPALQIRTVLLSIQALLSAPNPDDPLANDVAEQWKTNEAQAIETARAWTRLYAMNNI

cells = assay type: functional
INS1 = experiment: beta cell apoptosis inhibitors, cytokine rescue, dose response, luminescence, retest (AID 449756); assay type: functional, cell-based; conditions: Rattus norvegicus;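 note: cell death triggered by IL-1 beta plus TNF-alpha plus IFN-gamma mixture; protective hits raise ATP signal compared with cytokine alone wells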
[8] = target: T3, Multidrug resistance protein CDR2 (Candida albicans (strain SC5314 / ATCC MYA-2876) (Yeast), UniProt P78595); experiment: CaCDR2 efflux pump inhibitors in yeast, dose response, S. cerevisiae AD1-8u, singleplex, Cherry Pick2 set (AID 623994); assay type: functional; conditions: read-out: EC50_MICROM
T3 sequence (P78595 whole entry): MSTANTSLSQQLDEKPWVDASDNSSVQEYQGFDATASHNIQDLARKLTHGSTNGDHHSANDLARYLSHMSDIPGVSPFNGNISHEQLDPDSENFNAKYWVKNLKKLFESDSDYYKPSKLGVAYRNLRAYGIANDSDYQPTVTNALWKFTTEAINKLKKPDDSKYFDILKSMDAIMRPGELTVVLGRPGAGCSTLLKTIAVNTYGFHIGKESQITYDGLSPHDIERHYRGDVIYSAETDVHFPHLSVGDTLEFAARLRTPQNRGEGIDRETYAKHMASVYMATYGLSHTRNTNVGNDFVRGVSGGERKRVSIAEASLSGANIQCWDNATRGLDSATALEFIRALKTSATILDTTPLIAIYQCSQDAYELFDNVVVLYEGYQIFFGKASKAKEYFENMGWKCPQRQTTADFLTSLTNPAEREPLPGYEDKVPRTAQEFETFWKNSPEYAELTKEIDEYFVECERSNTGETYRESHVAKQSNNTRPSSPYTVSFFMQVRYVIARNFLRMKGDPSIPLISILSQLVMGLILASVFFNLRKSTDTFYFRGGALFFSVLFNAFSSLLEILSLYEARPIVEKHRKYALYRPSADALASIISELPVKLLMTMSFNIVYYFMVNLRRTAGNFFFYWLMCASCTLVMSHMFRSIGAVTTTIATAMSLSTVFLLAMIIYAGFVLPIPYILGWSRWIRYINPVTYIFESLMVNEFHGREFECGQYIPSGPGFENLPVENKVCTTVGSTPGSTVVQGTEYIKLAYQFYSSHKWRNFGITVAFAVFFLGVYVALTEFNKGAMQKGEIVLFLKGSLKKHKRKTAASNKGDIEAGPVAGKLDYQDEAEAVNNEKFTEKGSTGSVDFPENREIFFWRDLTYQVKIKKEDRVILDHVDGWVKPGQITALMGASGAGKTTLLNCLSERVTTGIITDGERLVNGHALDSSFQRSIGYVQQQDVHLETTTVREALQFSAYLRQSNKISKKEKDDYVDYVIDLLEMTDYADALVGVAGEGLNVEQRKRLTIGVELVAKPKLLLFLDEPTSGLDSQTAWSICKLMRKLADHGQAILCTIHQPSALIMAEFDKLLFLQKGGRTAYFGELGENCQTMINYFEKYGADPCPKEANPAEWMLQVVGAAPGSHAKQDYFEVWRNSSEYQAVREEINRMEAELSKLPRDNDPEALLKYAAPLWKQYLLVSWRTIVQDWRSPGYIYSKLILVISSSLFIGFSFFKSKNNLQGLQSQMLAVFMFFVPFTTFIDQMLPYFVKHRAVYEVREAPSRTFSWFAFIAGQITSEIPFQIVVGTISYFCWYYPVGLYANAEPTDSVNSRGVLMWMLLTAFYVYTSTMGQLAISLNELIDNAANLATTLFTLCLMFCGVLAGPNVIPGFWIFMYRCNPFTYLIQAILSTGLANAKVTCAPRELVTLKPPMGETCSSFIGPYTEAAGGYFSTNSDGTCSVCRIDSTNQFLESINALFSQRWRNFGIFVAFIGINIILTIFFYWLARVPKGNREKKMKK

[9] = target: Adenosylmethionine-8-amino-7-oxononanoate aminotransferase (Mycobacterium tuberculosis, UniProt P9WQ81); experiment: Mycobacterium tuberculosis BioA enzyme inhibitor Measured in Biochemical System Using Plate Reader - 2163-02_Inhibitor_Dose_CherryPick_Activity.; assay type: functional, Mycobacterium tuberculosis UT205
Chain of Adenosylmethionine-8-amino-7-oxononanoate aminotransferase (P9WQ81 whole entry): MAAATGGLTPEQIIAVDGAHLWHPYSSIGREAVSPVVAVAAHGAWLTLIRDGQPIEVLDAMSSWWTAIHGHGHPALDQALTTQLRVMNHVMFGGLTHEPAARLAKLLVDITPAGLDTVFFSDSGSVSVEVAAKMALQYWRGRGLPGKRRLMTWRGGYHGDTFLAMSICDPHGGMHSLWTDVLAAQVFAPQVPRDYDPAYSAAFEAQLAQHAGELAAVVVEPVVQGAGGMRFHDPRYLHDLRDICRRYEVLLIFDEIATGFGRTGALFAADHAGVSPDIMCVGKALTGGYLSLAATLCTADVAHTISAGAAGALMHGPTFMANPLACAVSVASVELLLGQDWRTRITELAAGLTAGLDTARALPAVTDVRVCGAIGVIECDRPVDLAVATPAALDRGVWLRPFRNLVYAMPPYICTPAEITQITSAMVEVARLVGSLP

HEK293 [10] = experiment: NOD1 signaling inhibitors, primary screen, cell-based, luminescence, uHTS (AID 1578); assay type: functional; conditions: Homo sapiens
HEK293 [11] = experiment: cells; assay type: functional, cell-based; conditions: Homo sapiens
HEK293 [12] = experiment: cells; assay type: functional, cell-based; conditions: Homo sapiens; remark: listed apart in the source
[13] = target: Nucleotide-binding oligomerization domain-containing protein 2 (Homo sapiens, UniProt Q9HC29); experiment: NOD2 signaling inhibitors, cell-based, luminescence, uHTS, HEK293 (AID 1566); assay type: functional
Chain of Nucleotide-binding oligomerization domain-containing protein 2 (Q9HC29 whole entry, the tested form may be a part): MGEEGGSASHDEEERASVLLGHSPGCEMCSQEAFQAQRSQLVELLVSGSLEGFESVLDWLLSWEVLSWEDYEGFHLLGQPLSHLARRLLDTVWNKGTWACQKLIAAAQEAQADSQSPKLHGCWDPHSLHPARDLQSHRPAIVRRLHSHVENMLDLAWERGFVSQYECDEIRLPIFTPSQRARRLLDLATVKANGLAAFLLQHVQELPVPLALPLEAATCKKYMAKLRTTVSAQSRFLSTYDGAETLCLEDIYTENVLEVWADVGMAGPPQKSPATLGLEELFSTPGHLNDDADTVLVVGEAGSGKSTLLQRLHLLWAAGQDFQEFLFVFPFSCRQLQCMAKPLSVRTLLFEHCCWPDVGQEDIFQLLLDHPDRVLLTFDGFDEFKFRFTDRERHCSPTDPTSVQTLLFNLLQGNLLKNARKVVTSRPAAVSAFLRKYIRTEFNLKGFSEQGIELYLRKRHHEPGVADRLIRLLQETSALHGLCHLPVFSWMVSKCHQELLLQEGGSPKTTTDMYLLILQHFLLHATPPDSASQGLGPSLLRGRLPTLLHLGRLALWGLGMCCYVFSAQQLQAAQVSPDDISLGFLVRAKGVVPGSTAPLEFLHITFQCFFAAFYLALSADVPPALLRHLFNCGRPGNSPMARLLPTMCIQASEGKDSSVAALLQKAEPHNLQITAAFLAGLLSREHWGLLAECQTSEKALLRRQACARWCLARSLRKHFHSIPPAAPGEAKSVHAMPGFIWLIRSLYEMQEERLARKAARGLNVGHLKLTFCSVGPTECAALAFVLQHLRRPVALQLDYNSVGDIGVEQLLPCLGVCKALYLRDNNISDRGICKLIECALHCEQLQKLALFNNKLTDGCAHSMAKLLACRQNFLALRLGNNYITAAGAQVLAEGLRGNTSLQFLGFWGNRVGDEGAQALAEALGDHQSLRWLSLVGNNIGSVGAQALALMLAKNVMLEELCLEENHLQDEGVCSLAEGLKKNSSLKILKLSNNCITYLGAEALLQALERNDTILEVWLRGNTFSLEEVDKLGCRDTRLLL

HEK293 [14] = experiment: NOD2 signaling inhibitors in MDP-stimulated cells, cell-based, uHTS, luminescence (AID 2001); assay type: functional; conditions: Homo sapiens
HEK293 [15] = experiment: cells; assay type: functional, cell-based; conditions: Homo sapiens; remark: listed apart in the source
[16] = target: Mitochondrial peptide methionine sulfoxide reductase (Bos taurus, UniProt P54149); experiment: Absorbance-based biochemical high throughput dose response assay for activators of Methionine sulfoxide reductase A (MsrA).; assay type: functional
Chain of Mitochondrial peptide methionine sulfoxide reductase (P54149 whole entry): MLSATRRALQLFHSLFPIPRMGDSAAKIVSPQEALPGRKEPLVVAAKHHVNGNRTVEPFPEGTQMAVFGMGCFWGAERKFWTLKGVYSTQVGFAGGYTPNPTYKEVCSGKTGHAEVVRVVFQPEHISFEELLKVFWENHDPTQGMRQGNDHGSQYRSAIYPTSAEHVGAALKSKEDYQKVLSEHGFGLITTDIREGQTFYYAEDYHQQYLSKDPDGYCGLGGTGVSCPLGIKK

Q: For `COc1ccccc1-c1nnc(NC(=O)c2cccc(N3C(=O)CCC3=O)c2)o1`, which AC50 [1] is on record?
A: The AC50 was 133 µM (active).

Q: Which results are given for `COC(=O)N1C(=O)[C@@](c2ccccc2)(C(C)C)N1C(=O)OC`?
A: IC50 (Interleukin-8 [2]): 2.15 µM (active); IC50 (Interleukin-8 [3]): 1.82 µM (active)

Q: Which EC50 [4] does the source give for `NC1=NC[C@H](Cc2ccccc2)N1CCCCC1CCCCC1` here?
A: Its EC50 is > 160 µM (inactive).

Q: What about the EC50 [5] of the same compound?
A: Its EC50 is 2.37 µM (active).

Q: And the CC50 [6]?
A: The CC50 was 7.59 µM (active).

Q: And the IC50 [7]?
A: Its IC50 is > 20 µM (inactive).

Q: What about the IC50 (cells) of the same compound?
A: Its IC50 is 23.6 µM (active).

Q: And the AC50 (INS1)?
A: The AC50 was 5.54 µM (active).

Q: And the EC50 [8]?
A: The EC50 was 34.7 µM (active).

Q: Which AC50 [9] does the source give for `CN1CCCC1CCOC(C)(c1ccccc1)c1ccc(Cl)cc1` (stereo not drawn) here?
A: The AC50 was 10.6 µM (active).

Q: What does the source list for `Cc1ccc(NS(=O)(=O)c2ccc3c(c2)C(=O)c2ccccc2C3=O)c(C)c1`?
A: EC50 (HEK293 [10]): 6.34 µM (active); IC50 (HEK293 [11]): 7.68 µM (active); IC50 (HEK293 [12]): > 20 µM (inactive); EC50 [13]: > 20 µM (inactive); IC50 (HEK293 [14]): 6.68 µM (active); IC50 (HEK293 [15]): > 20 µM (inactive); EC50 [16]: > 104 µM (inactive)
